Reference: the kinase profiling compilation of Christmann-Franck et al. (2016)

Columns and labels:
Experiment in all cases: KINOMEscan competition binding
[1] = system: RET (human), P07949 [V804L]; details: compound 1.0 µM
BMP2K (human) = BMP2K (human) (UniProt Q9NSY1); details: for kinase still bound, per cent of control: compound 1.0 µM
PDPK1 (human) = PDPK1 (human) (UniProt O15530); details: compound 1.0 µM
PRKAA2 (human) = PRKAA2 (human) (UniProt P54646); details: compound 1.0 µM
TESK1 (human) = TESK1 (human) (UniProt Q15569); details: compound 1.0 µM
PRKCE (human) = PRKCE (human) (UniProt Q02156); details: compound 1.0 µM
WEE2 (human) = WEE2 (human) (UniProt P0C1S8); details: compound 1.0 µM
CDK13 (human) = CDK13 (human) (UniProt Q14004); details: compound 1.0 µM
ULK3 (human) = ULK3 (human) (UniProt Q6PHR2); details: compound 1.0 µM
PIK3C2G (human) = PIK3C2G (human) (UniProt O75747); details: compound 1.0 µM
AKT3 (human) = AKT3 (human) (UniProt Q9Y243); details: compound 1.0 µM
MAP4K5 (human) = MAP4K5 (human) (UniProt Q9Y4K4); details: compound 1.0 µM
PRKX (human) = PRKX (human) (UniProt P51817); details: compound 1.0 µM
RIPK4 (human) = RIPK4 (human) (UniProt P57078); details: compound 1.0 µM
CAMK2B (human) = CAMK2B (human) (UniProt Q13554); details: compound 1.0 µM
PRKCI (human) = PRKCI (human) (UniProt P41743); details: compound 1.0 µM
ITK (human) = ITK (human) (UniProt Q08881); details: compound 1.0 µM
BTK (human) = BTK (human) (UniProt Q06187); details: compound 1.0 µM
ALK (human) = ALK (human) (UniProt Q9UM73); details: compound 1.0 µM
[2] = system: EGFR (human), P00533 [T790M]; details: compound 1.0 µM
[3] = target: TYK2 JH1 catalytic (human) (UniProt P29597); details: compound 1.0 µM
MAPK11 (human) = MAPK11 (human) (UniProt Q15759); details: compound 1.0 µM
MAK (human) = MAK (human) (UniProt P20794); details: compound 1.0 µM
STK39 (human) = STK39 (human) (UniProt Q9UEW8); details: compound 1.0 µM
MET (human) = MET (human) (UniProt P08581); details: compound 1.0 µM
ACVRL1 (human) = ACVRL1 (human) (UniProt P37023); details: compound 1.0 µM
FGFR2 (human) = FGFR2 (human) (UniProt P21802); details: compound 1.0 µM
DAPK2 (human) = DAPK2 (human) (UniProt Q9UIK4); details: compound 1.0 µM
[4] = system: EGFR (human), P00533 [P753S; 747-752 del]; details: compound 1.0 µM
[5] = system: PIK3CA (human), P42336 [E545A]; details: compound 1.0 µM
CDK7 (human) = CDK7 (human) (UniProt P50613); details: compound 1.0 µM
NEK1 (human) = NEK1 (human) (UniProt Q96PY6); details: compound 1.0 µM
IRAK4 (human) = IRAK4 (human) (UniProt Q9NWZ3); details: compound 1.0 µM
EPHA7 (human) = EPHA7 (human) (UniProt Q15375); details: compound 1.0 µM
CSNK1G3 (human) = CSNK1G3 (human) (UniProt Q9Y6M4); details: compound 1.0 µM
CSK (human) = CSK (human) (UniProt P41240); details: compound 1.0 µM
CDKL2 (human) = CDKL2 (human) (UniProt Q92772); details: compound 1.0 µM
RIPK2 (human) = RIPK2 (human) (UniProt O43353); details: compound 1.0 µM
FGFR3 (human) = FGFR3 (human) (UniProt P22607); details: compound 1.0 µM
STK10 (human) = STK10 (human) (UniProt O94804); details: compound 1.0 µM
LATS1 (human) = LATS1 (human) (UniProt O95835); details: compound 1.0 µM
CAMK2A (human) = CAMK2A (human) (UniProt Q9UQM7); details: compound 1.0 µM
MERTK (human) = MERTK (human) (UniProt Q12866); details: compound 1.0 µM
Sequence of MERTK (human) (Q12866 whole entry, looked up): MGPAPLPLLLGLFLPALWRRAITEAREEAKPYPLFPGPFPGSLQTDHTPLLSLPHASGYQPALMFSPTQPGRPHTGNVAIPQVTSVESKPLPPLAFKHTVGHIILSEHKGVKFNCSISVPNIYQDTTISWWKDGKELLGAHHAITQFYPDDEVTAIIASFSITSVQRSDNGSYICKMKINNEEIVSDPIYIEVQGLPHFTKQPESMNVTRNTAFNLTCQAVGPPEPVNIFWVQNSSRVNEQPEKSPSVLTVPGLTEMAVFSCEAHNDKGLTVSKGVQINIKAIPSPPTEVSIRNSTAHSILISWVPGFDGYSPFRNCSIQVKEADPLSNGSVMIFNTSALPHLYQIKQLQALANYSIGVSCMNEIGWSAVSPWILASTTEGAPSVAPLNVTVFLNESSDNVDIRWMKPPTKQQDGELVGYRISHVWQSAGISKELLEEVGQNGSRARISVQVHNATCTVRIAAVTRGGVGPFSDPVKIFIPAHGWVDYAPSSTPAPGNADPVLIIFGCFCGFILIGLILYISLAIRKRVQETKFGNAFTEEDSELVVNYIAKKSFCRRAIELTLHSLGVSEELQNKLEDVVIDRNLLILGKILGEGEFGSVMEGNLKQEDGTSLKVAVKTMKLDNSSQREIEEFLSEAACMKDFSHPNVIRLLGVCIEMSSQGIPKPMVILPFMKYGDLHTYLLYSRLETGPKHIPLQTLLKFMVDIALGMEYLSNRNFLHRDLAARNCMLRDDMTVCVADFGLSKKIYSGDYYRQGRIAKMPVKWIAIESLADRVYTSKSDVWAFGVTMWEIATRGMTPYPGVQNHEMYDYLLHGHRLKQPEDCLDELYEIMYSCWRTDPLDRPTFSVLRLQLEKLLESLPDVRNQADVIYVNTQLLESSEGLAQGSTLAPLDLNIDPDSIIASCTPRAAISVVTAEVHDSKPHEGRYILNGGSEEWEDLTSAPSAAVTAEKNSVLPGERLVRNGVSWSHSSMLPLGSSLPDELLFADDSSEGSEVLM

Sequence of BMP2K (human) (Q9NSY1 whole entry, looked up): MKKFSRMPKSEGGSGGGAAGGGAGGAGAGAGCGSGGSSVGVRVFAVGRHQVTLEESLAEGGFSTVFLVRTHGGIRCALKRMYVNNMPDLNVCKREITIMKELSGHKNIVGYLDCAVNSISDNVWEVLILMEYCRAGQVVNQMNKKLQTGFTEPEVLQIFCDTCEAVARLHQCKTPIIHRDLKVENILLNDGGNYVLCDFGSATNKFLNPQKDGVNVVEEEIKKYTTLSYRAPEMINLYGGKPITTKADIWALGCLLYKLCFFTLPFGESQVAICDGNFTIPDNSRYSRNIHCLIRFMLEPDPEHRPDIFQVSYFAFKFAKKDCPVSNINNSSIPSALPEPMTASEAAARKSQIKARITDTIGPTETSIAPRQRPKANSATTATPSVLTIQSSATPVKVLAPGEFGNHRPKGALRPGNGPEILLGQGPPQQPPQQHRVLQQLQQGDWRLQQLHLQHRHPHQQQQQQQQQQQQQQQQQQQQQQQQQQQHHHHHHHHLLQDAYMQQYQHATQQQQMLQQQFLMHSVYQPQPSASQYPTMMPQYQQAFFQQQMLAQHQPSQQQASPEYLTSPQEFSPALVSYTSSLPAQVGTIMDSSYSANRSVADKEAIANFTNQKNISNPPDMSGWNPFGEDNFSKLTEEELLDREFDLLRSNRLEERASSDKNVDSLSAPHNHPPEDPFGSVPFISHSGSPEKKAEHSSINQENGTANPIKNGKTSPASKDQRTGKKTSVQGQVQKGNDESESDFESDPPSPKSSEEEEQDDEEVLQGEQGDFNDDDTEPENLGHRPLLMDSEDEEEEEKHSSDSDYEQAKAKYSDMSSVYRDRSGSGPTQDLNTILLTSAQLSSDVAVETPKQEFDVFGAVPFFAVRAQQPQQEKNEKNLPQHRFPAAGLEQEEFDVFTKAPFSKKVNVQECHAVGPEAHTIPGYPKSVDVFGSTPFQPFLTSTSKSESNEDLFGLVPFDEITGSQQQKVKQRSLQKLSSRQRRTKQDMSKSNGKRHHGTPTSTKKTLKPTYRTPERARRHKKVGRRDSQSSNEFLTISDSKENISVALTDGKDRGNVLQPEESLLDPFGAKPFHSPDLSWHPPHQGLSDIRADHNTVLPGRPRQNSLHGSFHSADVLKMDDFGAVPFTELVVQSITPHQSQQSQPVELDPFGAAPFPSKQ
Sequence of NEK1 (human) (Q96PY6 whole entry, looked up): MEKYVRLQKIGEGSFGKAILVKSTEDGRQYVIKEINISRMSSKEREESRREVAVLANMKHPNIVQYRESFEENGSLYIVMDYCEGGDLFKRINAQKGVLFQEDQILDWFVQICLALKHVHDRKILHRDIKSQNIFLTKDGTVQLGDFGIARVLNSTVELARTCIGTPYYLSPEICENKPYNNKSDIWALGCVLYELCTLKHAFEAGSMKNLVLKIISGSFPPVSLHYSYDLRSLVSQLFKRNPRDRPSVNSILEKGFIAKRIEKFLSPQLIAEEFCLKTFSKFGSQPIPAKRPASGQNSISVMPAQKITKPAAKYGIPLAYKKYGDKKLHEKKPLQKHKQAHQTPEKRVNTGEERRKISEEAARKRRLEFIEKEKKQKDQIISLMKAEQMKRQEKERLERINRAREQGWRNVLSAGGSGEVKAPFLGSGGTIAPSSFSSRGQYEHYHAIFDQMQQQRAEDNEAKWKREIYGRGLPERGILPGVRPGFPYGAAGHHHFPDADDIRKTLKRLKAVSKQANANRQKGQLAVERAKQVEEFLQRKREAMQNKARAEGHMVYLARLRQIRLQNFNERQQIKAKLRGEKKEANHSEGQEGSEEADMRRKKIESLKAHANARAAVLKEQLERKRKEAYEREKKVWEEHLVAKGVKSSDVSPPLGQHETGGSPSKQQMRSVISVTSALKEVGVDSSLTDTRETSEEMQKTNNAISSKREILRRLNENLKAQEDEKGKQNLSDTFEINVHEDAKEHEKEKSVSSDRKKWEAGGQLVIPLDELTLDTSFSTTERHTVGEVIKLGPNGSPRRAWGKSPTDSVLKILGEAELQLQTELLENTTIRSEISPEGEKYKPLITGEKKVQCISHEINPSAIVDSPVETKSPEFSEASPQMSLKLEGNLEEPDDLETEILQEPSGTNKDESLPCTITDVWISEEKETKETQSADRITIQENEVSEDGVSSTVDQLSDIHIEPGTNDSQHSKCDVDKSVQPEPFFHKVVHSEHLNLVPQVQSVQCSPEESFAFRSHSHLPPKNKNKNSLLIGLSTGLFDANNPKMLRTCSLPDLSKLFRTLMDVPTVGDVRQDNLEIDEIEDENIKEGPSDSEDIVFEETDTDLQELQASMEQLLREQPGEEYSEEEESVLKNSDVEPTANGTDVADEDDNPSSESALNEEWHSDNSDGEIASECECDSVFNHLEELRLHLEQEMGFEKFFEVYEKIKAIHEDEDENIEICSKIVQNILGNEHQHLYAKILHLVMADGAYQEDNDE
Sequence of ACVRL1 (human) (P37023 whole entry, looked up): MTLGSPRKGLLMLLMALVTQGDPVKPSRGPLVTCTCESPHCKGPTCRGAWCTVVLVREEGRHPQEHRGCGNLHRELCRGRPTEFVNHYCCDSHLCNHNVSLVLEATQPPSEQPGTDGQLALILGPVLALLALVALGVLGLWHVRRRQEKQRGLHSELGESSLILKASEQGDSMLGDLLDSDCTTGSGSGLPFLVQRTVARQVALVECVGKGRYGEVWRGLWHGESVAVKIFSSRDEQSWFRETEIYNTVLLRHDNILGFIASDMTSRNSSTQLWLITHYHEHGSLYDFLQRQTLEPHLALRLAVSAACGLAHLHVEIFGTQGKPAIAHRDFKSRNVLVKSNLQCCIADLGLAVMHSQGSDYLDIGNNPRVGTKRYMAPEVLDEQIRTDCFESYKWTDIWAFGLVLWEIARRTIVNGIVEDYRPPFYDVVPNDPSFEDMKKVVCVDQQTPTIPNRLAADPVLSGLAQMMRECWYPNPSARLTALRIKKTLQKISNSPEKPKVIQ
Sequence of CAMK2B (human) (Q13554 whole entry, looked up): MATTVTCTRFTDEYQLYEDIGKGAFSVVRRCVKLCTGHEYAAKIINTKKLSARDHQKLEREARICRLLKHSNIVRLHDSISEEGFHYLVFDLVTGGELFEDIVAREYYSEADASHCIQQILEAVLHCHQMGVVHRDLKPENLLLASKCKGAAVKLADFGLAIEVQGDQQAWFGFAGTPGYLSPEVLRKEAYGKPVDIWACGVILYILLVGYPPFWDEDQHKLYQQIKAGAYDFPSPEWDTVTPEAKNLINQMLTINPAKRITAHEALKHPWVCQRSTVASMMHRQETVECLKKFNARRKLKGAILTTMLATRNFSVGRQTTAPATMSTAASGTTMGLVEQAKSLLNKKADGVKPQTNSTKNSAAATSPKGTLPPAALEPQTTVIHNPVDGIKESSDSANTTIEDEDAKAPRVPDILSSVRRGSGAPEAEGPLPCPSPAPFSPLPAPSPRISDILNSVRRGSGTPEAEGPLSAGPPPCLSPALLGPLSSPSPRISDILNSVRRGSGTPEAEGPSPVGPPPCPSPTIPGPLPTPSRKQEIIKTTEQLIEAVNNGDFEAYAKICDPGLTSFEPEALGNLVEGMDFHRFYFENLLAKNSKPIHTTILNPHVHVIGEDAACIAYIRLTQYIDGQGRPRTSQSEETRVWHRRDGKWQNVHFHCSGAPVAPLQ
Sequence of MAPK11 (human) (Q15759 whole entry, looked up): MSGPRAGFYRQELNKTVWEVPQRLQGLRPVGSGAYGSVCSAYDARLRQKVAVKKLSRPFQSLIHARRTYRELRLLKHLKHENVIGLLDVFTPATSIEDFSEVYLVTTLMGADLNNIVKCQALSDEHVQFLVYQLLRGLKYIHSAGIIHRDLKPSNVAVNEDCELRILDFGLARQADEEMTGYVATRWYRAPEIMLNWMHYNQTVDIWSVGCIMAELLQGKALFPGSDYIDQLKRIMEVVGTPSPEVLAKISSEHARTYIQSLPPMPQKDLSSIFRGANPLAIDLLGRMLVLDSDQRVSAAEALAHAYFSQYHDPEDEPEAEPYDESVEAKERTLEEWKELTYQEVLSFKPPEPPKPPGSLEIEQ

## CN(C)C/C=C/C(=O)Nc1cccc(C(=O)Nc2ccc(Nc3nccc(-c4cccnc4)n3)cc2)c1
[1]
  kinase still bound, per cent of control: 100%
BMP2K (human)
  Kd: 190 nM
  kinase still bound, per cent of control: 3.8%
PDPK1 (human)
  kinase still bound, per cent of control: 93%
PRKAA2 (human)
  kinase still bound, per cent of control: 81%
TESK1 (human)
  kinase still bound, per cent of control: 88%
PRKCE (human)
  kinase still bound, per cent of control: 61%
WEE2 (human)
  kinase still bound, per cent of control: 100%
CDK13 (human)
  kinase still bound, per cent of control: 43%
ULK3 (human)
  kinase still bound, per cent of control: 7%
PIK3C2G (human)
  kinase still bound, per cent of control: 100%
AKT3 (human)
  kinase still bound, per cent of control: 100%
MAP4K5 (human)
  kinase still bound, per cent of control: 52%
PRKX (human)
  kinase still bound, per cent of control: 96%
RIPK4 (human)
  kinase still bound, per cent of control: 31%
CAMK2B (human)
  kinase still bound, per cent of control: 82%
PRKCI (human)
  kinase still bound, per cent of control: 100%
ITK (human)
  kinase still bound, per cent of control: 85%
BTK (human)
  kinase still bound, per cent of control: 76%
ALK (human)
  kinase still bound, per cent of control: 100%
[2]
  kinase still bound, per cent of control: 91%
[3]
  kinase still bound, per cent of control: 16%
MAPK11 (human)
  kinase still bound, per cent of control: 95%
MAK (human)
  kinase still bound, per cent of control: 5.6%
STK39 (human)
  kinase still bound, per cent of control: 95%
MET (human)
  kinase still bound, per cent of control: 100%
ACVRL1 (human)
  kinase still bound, per cent of control: 100%
FGFR2 (human)
  kinase still bound, per cent of control: 67%
DAPK2 (human)
  kinase still bound, per cent of control: 75%
[4]
  kinase still bound, per cent of control: 99%
[5]
  kinase still bound, per cent of control: 95%
CDK7 (human)
  kinase still bound, per cent of control: 20%
NEK1 (human)
  kinase still bound, per cent of control: 77%
IRAK4 (human)
  kinase still bound, per cent of control: 100%
EPHA7 (human)
  kinase still bound, per cent of control: 86%
CSNK1G3 (human)
  kinase still bound, per cent of control: 66%
CSK (human)
  kinase still bound, per cent of control: 97%
CDKL2 (human)
  kinase still bound, per cent of control: 21%
RIPK2 (human)
  kinase still bound, per cent of control: 55%
FGFR3 (human)
  kinase still bound, per cent of control: 78%
STK10 (human)
  kinase still bound, per cent of control: 100%
LATS1 (human)
  kinase still bound, per cent of control: 100%
CAMK2A (human)
  kinase still bound, per cent of control: 100%
MERTK (human)
  kinase still bound, per cent of control: 100%

## CN(C)C/C=C/C(=O)Nc1cccc(C(=O)Nc2ccc(Nc3nccc(-c4c(-c5ccccc5)nn5ccccc45)n3)cc2)c1
[1]
  kinase still bound, per cent of control: 89%
BMP2K (human)
  kinase still bound, per cent of control: 100%
PDPK1 (human)
  kinase still bound, per cent of control: 100%
PRKAA2 (human)
  kinase still bound, per cent of control: 90%
TESK1 (human)
  kinase still bound, per cent of control: 99%
PRKCE (human)
  kinase still bound, per cent of control: 93%
WEE2 (human)
  kinase still bound, per cent of control: 100%
CDK13 (human)
  kinase still bound, per cent of control: 100%
ULK3 (human)
  kinase still bound, per cent of control: 84%
PIK3C2G (human)
  kinase still bound, per cent of control: 100%
AKT3 (human)
  kinase still bound, per cent of control: 80%
MAP4K5 (human)
  kinase still bound, per cent of control: 27%
PRKX (human)
  kinase still bound, per cent of control: 94%
RIPK4 (human)
  kinase still bound, per cent of control: 100%
CAMK2B (human)
  kinase still bound, per cent of control: 100%
PRKCI (human)
  kinase still bound, per cent of control: 46%
ITK (human)
  kinase still bound, per cent of control: 100%
BTK (human)
  kinase still bound, per cent of control: 100%
ALK (human)
  kinase still bound, per cent of control: 100%
[2]
  kinase still bound, per cent of control: 11%
[3]
  kinase still bound, per cent of control: 76%
MAPK11 (human)
  kinase still bound, per cent of control: 6.6%
MAK (human)
  kinase still bound, per cent of control: 100%
STK39 (human)
  kinase still bound, per cent of control: 82%
MET (human)
  kinase still bound, per cent of control: 55%
ACVRL1 (human)
  kinase still bound, per cent of control: 22%
FGFR2 (human)
  kinase still bound, per cent of control: 49%
DAPK2 (human)
  kinase still bound, per cent of control: 97%
[4]
  kinase still bound, per cent of control: 7%
[5]
  kinase still bound, per cent of control: 100%
CDK7 (human)
  kinase still bound, per cent of control: 83%
NEK1 (human)
  kinase still bound, per cent of control: 100%
IRAK4 (human)
  kinase still bound, per cent of control: 84%
EPHA7 (human)
  kinase still bound, per cent of control: 100%
CSNK1G3 (human)
  kinase still bound, per cent of control: 1.2%
CSK (human)
  kinase still bound, per cent of control: 89%
CDKL2 (human)
  kinase still bound, per cent of control: 74%
RIPK2 (human)
  kinase still bound, per cent of control: 12%
FGFR3 (human)
  kinase still bound, per cent of control: 100%
STK10 (human)
  kinase still bound, per cent of control: 23%
LATS1 (human)
  kinase still bound, per cent of control: 95%
CAMK2A (human)
  kinase still bound, per cent of control: 100%
MERTK (human)
  kinase still bound, per cent of control: 49%
